Data taken from patent US8394848B2, “Compounds that modulate intracellular calcium” (Calcimedica, Inc., priority 2008, dated 2013).

test system: JR251 or RBL cells; assay: Store-operated calcium entry, either JR251 or RBL cells, or both; assay type: cell-based
Procedure, shortened: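 Orai1/STIM1 stable cells: fluo-4-AM loaded, compound 30 min at RT in Ca2+-free HBSS, then CaCl2 added; IC50 from Peak-Basal FLIPR fluorescence. RBL-2H3 cells: compound 5 min, then thapsigargin (5.5× stock, 5.5 uM) 25 min, then calcium added; IC50 from Upslope (signal 7 s after calcium minus baseline).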

IC50, < 10 µM:
N#Cc1cccc2nc(C(=O)Nc3scc(-c4ccc(Br)cc4)c3C(=O)O)oc12 [4-(4-bromophenyl)-2-(7-cyanobenzo[d]oxazole-2-carboxamido)thiophene-3-carboxylic acid]
O=C(CCc1ccccc1)Nc1scc(-c2ccc(Cl)cc2)c1C(=O)O [4-(4-chlorophenyl)-2-(3-phenylpropanamido)thiophene-3-carboxylic acid]
O=C(O)c1c(-c2ccc(Cl)cc2)csc1NC(=O)C1(c2ccc(Cl)cc2)CC1 [4-(4-chlorophenyl)-2-(1-(4-chlorophenyl)cyclopropanecarboxamido)thiophene-3-carboxylic acid]
O=C(O)c1c(-c2ccc(Cl)cc2)csc1NC(=O)C(Cc1ccccc1)n1cnnn1 (centres unmarked) [4-(4-chlorophenyl)-2-(3-phenyl-2-(1H-tetrazol-1-yl)propanamido)thiophene-3-carboxylic acid]
O=C(Nc1scc(-c2ccc(Cl)c(F)c2F)c1C(=O)O)c1nc2ccccc2o1 [2-(benzo[d]oxazole-2-carboxamido)-4-(4-chloro-2,3-difluorophenyl)thiophene-3-carboxylic acid]
O=C(Nc1scc(/C=C/c2ccc(F)cc2)c1C(=O)O)c1cc2ccccc2o1 [(E)-2-(benzofuran-2-carboxamido)-4-(4-fluorostyryl)thiophene-3-carboxylic acid]
O=C(O)c1c(-c2ccc(Cl)cc2)csc1NC(=O)C1Cc2ccc(F)cc2C1 (centres unmarked) [4-(4-chlorophenyl)-2-(5-fluoro-2,3-dihydro-1H-indene-2-carboxamido)thiophene-3-carboxylic acid]
Cc1cc(-c2csc(NC(=O)c3cc4ccccc4o3)c2C(=O)O)c(C)cc1Br [2-(benzofuran-2-carboxamido)-4-(4-bromo-2,5-dimethylphenyl)thiophene-3-carboxylic acid]
O=C(O)c1c(-c2ccc(Cl)cc2)csc1NC(=O)C(F)Cc1cc(F)ccc1Cl (centres unmarked) [2-(3-(2-chloro-5-fluorophenyl)-2-fluoropropanamido)-4-(4-chlorophenyl)thiophene-3-carboxylic acid]
O=C1CC(C(=O)Nc2scc(-c3ccc(Cl)cc3)c2C(=O)O)Cc2ccccc21 (centres unmarked) [4-(4-chlorophenyl)-2-(4-oxo-1,2,3,4-tetrahydronaphthalene-2-carboxamido)thiophene-3-carboxylic acid]
Cc1ccc(C(=O)Nc2scc(-c3ccc(Cl)cc3)c2C(=O)O)cn1 [4-(4-chlorophenyl)-2-(6-methylnicotinamido)thiophene-3-carboxylic acid]
CC(Cc1ccccc1)C(=O)Nc1scc(-c2ccc(Cl)cc2)c1C(=O)O (centres unmarked) [4-(4-chlorophenyl)-2-(2-methyl-3-phenylpropanamido)thiophene-3-carboxylic acid]
Cc1noc(C)c1C(=O)Nc1scc(-c2ccc(Cl)cc2)c1C(=O)O [4-(4-chlorophenyl)-2-(3,5-dimethylisoxazole-4-carboxamido)thiophene-3-carboxylic acid]
CS(=O)(=O)c1csc(C(=O)Nc2scc(-c3ccc(Cl)cc3)c2C(=O)O)c1Cl [2-(3-chloro-4-(methylsulfonyl)thiophene-2-carboxamido)-4-(4-chlorophenyl)thiophene-3-carboxylic acid]
O=C(CSc1ccccc1)Nc1scc(-c2ccc(Br)cc2)c1C(=O)O [4-(4-bromophenyl)-2-(2-(phenylthio)acetamido)thiophene-3-carboxylic acid]
O=C(CCc1ccc(F)cc1F)Nc1scc(-c2ccc(Br)cc2)c1C(=O)O [4-(4-bromophenyl)-2-(3-(2,4-difluorophenyl)propanamido)thiophene-3-carboxylic acid]
Cc1ccc(-c2csc(NC(=O)c3cc4cccc(O)c4o3)c2C(=O)O)c(F)c1F [4-(2,3-difluoro-4-methylphenyl)-2-(7-hydroxybenzofuran-2-carboxamido)thiophene-3-carboxylic acid]
Cc1ccc(-c2csc(NC(=O)c3nc4ccccc4o3)c2C(=O)O)c(F)c1 [2-(benzo[d]oxazole-2-carboxamido)-4-(2-fluoro-4-methylphenyl)thiophene-3-carboxylic acid]
O=C(Nc1scc(-c2ccc(Br)cc2)c1C(=O)O)c1nc2ccccc2s1 [2-(benzo[d]thiazole-2-carboxamido)-4-(4-bromophenyl)thiophene-3-carboxylic acid]
Cc1oc(-c2ccccc2)cc1C(=O)Nc1scc(-c2ccc(Cl)cc2)c1C(=O)O [4-(4-chlorophenyl)-2-(2-methyl-5-phenylfuran-3-carboxamido)thiophene-3-carboxylic acid]
Cc1ccsc1C(=O)Nc1scc(-c2ccc(C(F)(F)F)cc2)c1C(=O)O [2-(3-methylthiophene-2-carboxamido)-4-(4-(trifluoromethyl)phenyl)thiophene-3-carboxylic acid]
N#Cc1ccc(-c2csc(NC(=O)c3nc4ccccc4o3)c2C(=O)O)c(F)c1 [2-(benzo[d]oxazole-2-carboxamido)-4-(4-cyano-2-fluorophenyl)thiophene-3-carboxylic acid]
CC(CC(=O)Nc1scc(-c2ccc(Cl)cc2)c1C(=O)O)c1ccccc1 (centres unmarked) [4-(4-chlorophenyl)-2-(3-phenylbutanamido)thiophene-3-carboxylic acid]
O=C(O)c1c(-c2ccc(Cl)cc2Cl)csc1NC(=O)C1CC1 [2-(cyclopropanecarboxamido)-4-(2,4-dichlorophenyl)thiophene-3-carboxylic acid]
N#Cc1ccc(-c2csc(NC(=O)CCc3ccccc3)c2C(=O)O)cc1 [4-(4-cyanophenyl)-2-(3-phenylpropanamido)thiophene-3-carboxylic acid]
O=C(Nc1scc(-c2ccc(Br)cc2)c1C(=O)O)c1cc2sccc2[nH]1 [4-(4-bromophenyl)-2-(4H-thieno[3,2-b]pyrrole-5-carboxamido)thiophene-3-carboxylic acid]
O=C(Cc1ccccc1)Nc1scc(-c2ccc(Cl)cc2)c1C(=O)O [4-(4-chlorophenyl)-2-(2-phenylacetamido)thiophene-3-carboxylic acid]
Cc1ccc(-c2csc(NC(=O)c3nc4cc(Cl)ccc4o3)c2C(=O)O)c(F)c1F [2-(5-chlorobenzo[d]oxazole-2-carboxamido)-4-(2,3-difluoro-4-methylphenyl)thiophene-3-carboxylic acid]
O=C(CCc1ccccc1F)Nc1scc(-c2ccc(Br)cc2)c1C(=O)O [4-(4-bromophenyl)-2-(3-(2-fluorophenyl)propanamido)thiophene-3-carboxylic acid]
O=C(Nc1scc(-c2ccc(Cl)cc2)c1C(=O)O)c1cnn(-c2ccccc2)c1C(F)(F)F [4-(4-chlorophenyl)-2-(1-phenyl-5-(trifluoromethyl)-1H-pyrazole-4-carboxamido)thiophene-3-carboxylic acid]
O=C(Nc1scc(-c2ccc(Cl)cc2)c1C(=O)O)c1cc2nccnc2s1 [4-(4-chlorophenyl)-2-(thieno[2,3-b]pyrazine-6-carboxamido)thiophene-3-carboxylic acid]
O=C(Nc1scc(-c2ccc(F)cc2F)c1C(=O)O)c1nc2ccccc2o1 [2-(benzo[d]oxazole-2-carboxamido)-4-(2,4-difluorophenyl)thiophene-3-carboxylic acid]
O=C(Nc1scc(-c2cc3cc(Br)ccc3o2)c1C(=O)O)c1cc2ccccc2o1 [2-(benzofuran-2-carboxamido)-4-(5-bromobenzofuran-2-yl)thiophene-3-carboxylic acid]
O=C(O)c1c(-c2ccc(Br)cc2)csc1NC(=O)C(F)Cc1ccc(F)cc1Cl (centres unmarked) [4-(4-bromophenyl)-2-(3-(2-chloro-4-fluorophenyl)-2-fluoropropanamido)thiophene-3-carboxylic acid]
O=C(Nc1scc(-c2ccc(C(F)(F)F)cc2F)c1C(=O)O)c1nc2ccccc2o1 [2-(benzo[d]oxazole-2-carboxamido)-4-(2-fluoro-4-(trifluoromethyl)phenyl)thiophene-3-carboxylic acid]
Cc1ccc(-c2csc(NC(=O)c3cc4ccccn4n3)c2C(=O)O)c(F)c1F [4-(2,3-difluoro-4-methylphenyl)-2-(pyrazolo[1,5-a]pyridine-2-carboxamido)thiophene-3-carboxylic acid]
O=C(O)c1c(-c2ccc(Br)cc2)csc1NC(=O)N1Cc2ccccc2C1 [4-(4-bromophenyl)-2-(isoindoline-2-carboxamido)thiophene-3-carboxylic acid]
O=C(Nc1scc(-c2cc(F)c(Cl)cc2F)c1C(=O)O)c1cc2ccccc2o1 [2-(benzofuran-2-carboxamido)-4-(4-chloro-2,5-difluorophenyl)thiophene-3-carboxylic acid]
O=C(CCc1ccccc1)Nc1scc(-c2cc3cc(Cl)ccc3o2)c1C(=O)O [4-(5-chlorobenzofuran-2-yl)-2-(3-phenylpropanamido)thiophene-3-carboxylic acid]
O=C(CCc1cccc(F)c1)Nc1scc(-c2ccc(Cl)cc2)c1C(=O)O [4-(4-chlorophenyl)-2-(3-(3-fluorophenyl)propanamido)thiophene-3-carboxylic acid]
O=C(Nc1scc(-c2ccc(Br)cc2)c1C(=O)O)OCc1ccccc1Cl [4-(4-bromophenyl)-2-((2-chlorobenzyloxy)carbonylamino)thiophene-3-carboxylic acid]
